{"source": "patent US6667334B1", "about": "“Imidazolidine derivatives, the production thereof, their use and pharmaceutical preparations containing the same” (Aventis Pharma Deutschland GmbH, priority 1998, dated 2003)"}
{"target": "T1, interaction between VCAM-1 and VLA-4 (Homo sapiens, UniProt P05556+P13612)", "T1 construct": "the VLA-4 integrins, are supplied in their natural form as surface molecules on human U937 cells; host or cells: U937 cells carry the endogenous VLA-4; The partner hVCAM-1(1-3)-IgG was secreted by transfected COS cells (ATCC CRL1651) and used as culture supernatant", "T1 sequence (P13612 34-1032)": "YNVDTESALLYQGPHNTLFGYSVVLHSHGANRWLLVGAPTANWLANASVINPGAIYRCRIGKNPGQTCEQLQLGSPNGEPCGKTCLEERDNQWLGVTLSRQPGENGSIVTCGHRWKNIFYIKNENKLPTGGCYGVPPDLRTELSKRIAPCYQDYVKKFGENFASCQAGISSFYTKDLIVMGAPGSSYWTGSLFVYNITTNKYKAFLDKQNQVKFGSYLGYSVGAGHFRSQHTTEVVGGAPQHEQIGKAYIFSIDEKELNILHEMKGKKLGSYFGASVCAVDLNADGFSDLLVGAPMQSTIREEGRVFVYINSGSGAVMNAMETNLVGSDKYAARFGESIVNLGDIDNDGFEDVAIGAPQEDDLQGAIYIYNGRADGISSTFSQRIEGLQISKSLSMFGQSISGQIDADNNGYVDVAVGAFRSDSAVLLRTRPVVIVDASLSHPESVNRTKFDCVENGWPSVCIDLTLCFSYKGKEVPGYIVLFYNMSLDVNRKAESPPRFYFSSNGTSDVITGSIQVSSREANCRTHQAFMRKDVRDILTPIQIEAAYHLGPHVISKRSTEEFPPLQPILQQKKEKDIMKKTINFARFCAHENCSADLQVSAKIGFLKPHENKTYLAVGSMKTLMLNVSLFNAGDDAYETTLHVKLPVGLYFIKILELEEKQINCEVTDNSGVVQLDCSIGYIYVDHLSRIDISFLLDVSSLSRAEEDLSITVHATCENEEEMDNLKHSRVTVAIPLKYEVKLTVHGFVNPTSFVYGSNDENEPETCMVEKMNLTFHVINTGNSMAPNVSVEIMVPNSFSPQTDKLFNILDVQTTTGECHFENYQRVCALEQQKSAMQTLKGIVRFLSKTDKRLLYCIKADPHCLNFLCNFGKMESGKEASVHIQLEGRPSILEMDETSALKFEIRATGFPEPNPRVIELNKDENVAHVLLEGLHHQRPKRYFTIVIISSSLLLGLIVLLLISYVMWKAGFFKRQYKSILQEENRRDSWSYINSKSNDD", "T1 sequence (P05556 21-798)": "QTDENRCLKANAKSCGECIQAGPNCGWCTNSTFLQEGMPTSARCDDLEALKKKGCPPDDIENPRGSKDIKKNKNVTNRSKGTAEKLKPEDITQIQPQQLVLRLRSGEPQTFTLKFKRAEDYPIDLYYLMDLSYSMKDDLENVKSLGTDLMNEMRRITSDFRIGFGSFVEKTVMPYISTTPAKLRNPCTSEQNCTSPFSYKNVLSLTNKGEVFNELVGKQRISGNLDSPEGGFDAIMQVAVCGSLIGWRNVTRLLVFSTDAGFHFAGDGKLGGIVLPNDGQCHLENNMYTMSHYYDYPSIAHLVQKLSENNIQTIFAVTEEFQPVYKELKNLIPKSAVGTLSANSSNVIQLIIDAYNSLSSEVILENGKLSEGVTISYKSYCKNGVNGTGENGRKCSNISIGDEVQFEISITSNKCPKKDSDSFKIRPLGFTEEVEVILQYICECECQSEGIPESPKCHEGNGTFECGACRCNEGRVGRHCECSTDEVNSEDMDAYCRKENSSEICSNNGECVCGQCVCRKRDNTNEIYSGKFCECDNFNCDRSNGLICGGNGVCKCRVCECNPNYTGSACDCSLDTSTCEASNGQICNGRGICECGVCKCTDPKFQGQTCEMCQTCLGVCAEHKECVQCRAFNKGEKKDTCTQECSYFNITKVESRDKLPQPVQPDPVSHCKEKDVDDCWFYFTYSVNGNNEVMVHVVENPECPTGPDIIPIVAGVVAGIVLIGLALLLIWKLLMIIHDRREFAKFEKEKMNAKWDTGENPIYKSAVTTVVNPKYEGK", "experiment": "U937/VCAM-1 cell adhesion test: adhesion of U937 cells to hVCAM-1(1-3)-IgG", "type": "cell-based", "conditions": "human U937 cells (ATCC CRL 1593) adhering to hVCAM-1(1-3)-IgG; concentration giving 50% inhibition of adhesion", "text": "The test method used for the activity of the compounds of the formula I on the interaction between VCAM-1 and VLA-4 is an assay which is specific for this interaction. The cellular binding components, i.e. the VLA-4 integrins, are supplied in their natural form as surface molecules on human U937 cells (ATCC CRL 1593), which belong to the leukocytes group. The specific binding components used are genetically engineered recombinant soluble fusion proteins, consisting of the extracytoplasmatic domain of human VCAM-1 and the constant region of a human immunoglobulin of the subclass IgGl.\nAssay for the Measurement of the Adhesion of U937 Cells (ATCC CRL 1593) to hVCAM-1(1-3)-IgG\n1. Preparation of Human VCAM-1(1-3)-IgG and Human CD4-IgG\nA genetic construct for the expression of the extracellular domain of human VCAM-1, associated with the genetic sequence of the heavy chain of human immunoglobulin IgGI (hinge, CH2 and CH3 regions), from Dr. Brian Seed, Massachusetts General Hospital, Boston, USA was employed (cf. Damle and Aruffo, Proc. Natl. Acad. Sci. USA 1991, 88, 6403-6407). The soluble fusion protein hVCAM-1(1-3)-IgG contained the three amino-terminal extracellular immunoglobulin-like domains of human VCAM-1 (Damle and Aruffo, Proc. Natl. Acad. Sci. USA 1991, 88, 6403-6407). CD4-IgG (Zettlmeissl et al., DNA and Cell Biology 1990, 9, 347) served as a fusion protein for negative controls. The recombinant proteins were expressed as soluble proteins after DEAE/dextran-mediated DNA transfection in COS cells (ATCC CRL1651) according to standard procedures (Ausubel et al., Current Protocols in Molecular Biology, John Wiley & Sons, Inc., 1994).\n2. Assay for the Measurement of the Adhesion of U937 Cells to hVCAM-1(1-3)-IgG\n2.1 96-well microtiter test plates (Nunc Maxisorb) were incubated at room temperature for 1 hour with 100 μl/well of a goat-anti-human IgG antibody solution (10 μg/ml in 50 mM tris, pH 9.5). After removal of the antibody solution, washing was carried out once with PBS.\n2.2 150 μl/well of a blocking buffer (1% BSA in PBS) was incubated on the plates at room temperature for 0.5 hour. After removal of the blocking buffer, washing was carried out once with PBS.\n2.3 100 μl per well of a cell culture supernatant of transfected COS cells were incubated on the plates at room temperature for 1.5 hours. The COS cells were transfected with a plasmid which codes for the three N-terminal immunoglobulin-like domains of VCAM-1, coupled to the Fc part of human IgG, (hVCAM-1(1-3)-IgG). The content of hVCAM-1(1-3)-IgG was about 0.5-1 μg/ml. After removal of the culture supernatant, washing was carried out once with PBS.\n2.4 The plates were incubated at room temperature for 20 minutes with 100 μl/well of Fc receptor blocking buffer (1 mg/ml of γ-globulin, 100 mM NaCl, 100 μM MgCl2, 100 μM MnCl2, 100 μM CaCl2, 1 mg/ml of BSA in 50 mM HEPES, pH 7.5). After removal of the Fc receptor blocking buffer, washing was carried out once with PBS.\n2.5 20 μl of binding buffer (100 mM NaCl, 100 μM MgCl2, 100 μM MnCl2, 100 μM CaCl2, 1 mg/ml of BSA in 50 mM HEPES, pH 7.5) were initially introduced, and the substances to be tested were added in 10 μl of binding buffer and incubated for 20 minutes. The controls used were antibodies against VCAM-1 (BBT, No. BBA6) and against VLA-4 (Immunotech, No. 0764).\n2.6 U937 cells were incubated in Fc receptor blocking buffer for 20 minutes and then added by pipette in a concentration of 1×10^6/ml and in an amount of 100 μl per well ([…]).\n2.7 The plates were slowly immersed at an angle of 45° in stop buffer (100 mM NaCl, 100 μM MgCl2, 100 μM MnCl2, 100 μM CaCl2 in 25 mM tris, pH 7.5) and shaken off. The process was repeated.\n2.8 50 μl/well of a dye solution (16.7 μg/ml of Hoechst Dye 33258, 4% formaldehyde, 0.5% Triton X-100 in PBS) were then incubated on the plates for 15 minutes. […]", "units": {"IC50": "µM"}}
{"smiles": "Cc1cccc(C(CC(=O)O)NC(=O)[C@H](CC(C)C)N2C(=O)N(Cc3ccc(/C=C/c4ccccc4)cc3)C(C)(C)C2=O)c1", "note": "(stereo partly drawn) [Example 13, 3-((S)-2-(4,4-Dimethyl-3-(4-styrylbenzyl)-2,5-dioxo-imidazolidin-1-yl)-2-(2-methylpropyl)acetylamino)-3-(3-methylphenyl)propionic Acid]", "IC50": 64.6}
{"smiles": "CC(C)C[C@@H](C(=O)N[C@H](CC(=O)O)c1ccccc1)N1C(=O)N(Cc2ccc(/C=C/c3ccccc3)cc2)C(C)(C)C1=O", "note": "[Example 3, (R)-3-((S)-2-(4,4-Dimethyl-3-(4-styrylbenzyl)-2,5-dioxoimidazolidin-1-yl)-2-(2-methylpropyl)acetylamino)-3-phenylpropionic Acid]", "IC50": 0.56}
{"smiles": "CC(C)C[C@@H](C(=O)N[C@H](CC(=O)O)c1ccc2c(c1)OCO2)N1C(=O)N(Cc2ccc(Oc3ccccc3)cc2)C(C)(C)C1=O", "note": "[Example 6, (R)-3-((S)-2-(4,4-Dimethyl-2,5-dioxo-3-(4-phenyloxy-20 benzyl)imidazolidin-1-yl)-2-(2-methylpropyl)acetylamino)-3-(3,4-methylenedioxyphenyl)propionic Acid]", "IC50": 16.4}
{"smiles": "COc1ccc(C(CC(=O)O)NC(=O)[C@H](CC(C)C)N2C(=O)N(Cc3ccc(/C=C/c4ccccc4)cc3)C(C)(C)C2=O)cc1F", "note": "(stereo partly drawn) [Example 12, 3-((S)-2-(4,4-Dimethyl-3-(4-styrylbenzyl)-2,5-dioxo-imidazolidin-1-yl)-2-(2-methylpropyl)acetylamino)-3-(3-fluoro-4-methoxyphenyl)propionic Acid]", "IC50": 17.5}
{"smiles": "CC(C)C[C@@H](C(=O)NC(CC(=O)O)c1cccc(F)c1)N1C(=O)N(Cc2ccc(/C=C/c3ccccc3)cc2)C(C)(C)C1=O", "note": "(stereo partly drawn) [Example 15, 3-((S)-2-(4,4-Dimethyl-3-(4-styrylbenzyl)-2,5-dioxo-imidazolidin-1-yl)-2-(2-methylpropyl)acetylamino)-3-(3-fluorophenyl)propionic acid]", "IC50": 61.5}
{"smiles": "Cc1ccccc1/C=C/c1ccc(CN2C(=O)N([C@@H](CC(C)C)C(=O)N[C@H](C)CC(=O)O)C(=O)C2(C)C)cc1", "note": "[Example 8, (R)-3-((S)-2-(4,4-Dimethyl-3-(4-(2-(2-methylphenyl)-vinyl)benzyl)-2,5-dioxoimidazolidin-1-yl)-2-(2-methyl-propyl)acetylamino)-3-methylpropionic Acid]", "IC50": 2}
{"smiles": "Cc1ccccc1/C=C/c1ccc(CN2C(=O)N([C@@H](CC(C)C)C(=O)N[C@H](CC(=O)O)c3ccccc3)C(=O)C2(C)C)cc1", "note": "[Example 9, (R)-3-((S)-2-(4,4-Dimethyl-3-(4-(2-(2-methylphenyl)-vinyl)benzyl)-2,5-dioxoimidazolidin-1-yl)-2-(2-methyl-propyl)acetylamino)-3-phenylpropionic Acid]", "IC50": 0.18}
{"smiles": "CC(C)C[C@@H](C(=O)NC(CC(=O)O)c1ccccc1F)N1C(=O)N(Cc2ccc(/C=C/c3ccccc3)cc2)C(C)(C)C1=O", "note": "(stereo partly drawn) [Example 14, 3-((S)-2-(4,4-Dimethyl-3-(4-styrylbenzyl)-2,5-dioxo-imidazolidin-1-yl)-2-(2-methylpropyl)acetylamino)-3-(2-fluorophenyl)propionic Acid]", "IC50": 15.3}
{"smiles": "COc1cccc(C(CC(=O)O)NC(=O)[C@H](CC(C)C)N2C(=O)N(Cc3ccc(/C=C/c4ccccc4)cc3)C(C)(C)C2=O)c1", "note": "(stereo partly drawn) [Example 10, 3-((S)-2-(4,4-Dimethyl-3-(4-styrylbenzyl)-2,5-dioxo-imidazolidin-1-yl)-2-(2-methylpropyl)acetylamino)-3-(3-methoxyphenyl)propionic Acid]", "IC50": 24.5}
{"smiles": "CC(C)C[C@@H](C(=O)N[C@H](C)CC(=O)O)N1C(=O)N(Cc2ccc(OCc3ccccc3)cc2)C(C)(C)C1=O", "note": "[Example 7, (R)-3-((S)-2-(3-(4-Benzyloxybenzyl)-4,4-dimethyl-2,5-dioxoimidazolidin-1-yl)-2-(2-methylpropyl)acetylamino)-3-methylpropionic Acid]", "IC50": 2.9}
{"smiles": "CC(C)C[C@@H](C(=O)NCCC(=O)O)N1C(=O)N(Cc2ccc(/C=C/c3ccccc3)cc2)C(C)(C)C1=O", "note": "[Example 4, 3-((S)-2-(4,4-Dimethyl-3-(4-styrylbenzyl)-2,5-dioxo-imidazolidin-1-yl)-2-(2-methylpropyl)acetylamino)propionic Acid]", "IC50": 27.8}
{"smiles": "CC(C)C[C@@H](C(=O)N[C@H](C)CC(=O)O)N1C(=O)N(Cc2ccc(/C=C/c3ccccc3)cc2)C(C)(C)C1=O", "note": "[Example 1, (R)-3-((S)-2-(4,4-Dimethyl-3-(4-styrylbenzyl)-2,5-dioxoimidazolidin-1-yl)-2-(2-methylpropyl)acetylamino)-3-methylpropionic Acid]", "IC50": 3.2}
{"smiles": "CC(C)C[C@@H](C(=O)NC(CC(=O)O)c1ccc(F)cc1)N1C(=O)N(Cc2ccc(/C=C/c3ccccc3)cc2)C(C)(C)C1=O", "note": "(stereo partly drawn) [Example 11, 3-((S)-2-(4,4-Dimethyl-3-(4-styrylbenzyl)-2,5-dioxo-imidazolidin-1-yl)-2-(2-methylpropyl)acetylamino)-3-(4-fluorophenyl)propionic Acid]", "IC50": 18}
{"smiles": "CCCCc1ccc(C(CC(=O)O)NC(=O)[C@H](CC(C)C)N2C(=O)N(Cc3ccc(/C=C/c4ccccc4)cc3)C(C)(C)C2=O)cc1", "note": "(stereo partly drawn) [Example 16, 3-(4-Butylphenyl)-3-((S)-2-(4,4-dimethyl-3-(4-styrylbenzyl)-2,5-dioxoimidazolidin-1-yl)-2-(2-methyl-propyl)acetylamino)propionic Acid]", "IC50": 34.9}
{"smiles": "CC(C)C[C@@H](C(=O)N[C@H](C)CC(=O)O)N1C(=O)N(Cc2ccc(CCc3ccccc3)cc2)C(C)(C)C1=O", "note": "[Example 2, (R)-3-((S)-2-(4,4-Dimethyl-3-(4-(2-phenylethyl)benzyl)-2,5-dioxoimidazolidin-1-yl)-2-(2-methylpropyl)acetylamino)-3-methylpropionic Acid]", "IC50": 118}
{"smiles": "CC(C)C[C@@H](C(=O)NC(CC(=O)O)c1ccc(Cl)cc1)N1C(=O)N(Cc2ccc(/C=C/c3ccccc3)cc2)C(C)(C)C1=O", "note": "(stereo partly drawn) [Example 17, 3-(4-Chlorophenyl)-3-((S)-2-(4,4-dimethyl-3-(4-styrylbenzyl)-2,5-dioxoimidazolidin-1-yl)-2-(2-methyl-propyl)acetylamino)propionic Acid]", "IC50": 36.6}
{"smiles": "CC(C)C[C@@H](C(=O)N[C@H](CC(=O)O)c1ccc2c(c1)OCO2)N1C(=O)N(Cc2ccc(/C=C/c3ccccc3)cc2)C(C)(C)C1=O", "note": "[Example 5, (R)-3-((S)-2-(4,4-Dimethyl-3-(4-styrylbenzyl)-2,5-dioxo-imidazolidin-1-yl)-2-(2-methylpropyl)acetylamino)-3-(3,4-methylenedioxyphenyl)propionic Acid]", "IC50": 0.15}
